Laboratory results reported in paper PMC2816717, “Active Fragments from Pro- and Antiapoptotic BCL-2 Proteins Have Distinct Membrane Behavior Reflecting Their Functional Divergence” (PLoS ONE, 2010).

Legend:
[1] = test system: isolated mitochondria; assay: Cytochrome c release assay, source of mitochondria not stated; format: biochemical; details: for effect on isolated mitochondria, in words: summary in Discussion
Method: (§1) Figure 7 Cytochrome c release assays. Peptides were incubated with isolated mitochondria for the indicated times (min) and the release of cytochrome c was monitored by Western blotting (IB). MitoHSP70 was used as an equal-loading control for the pellet fraction. Control lanes indicate that in the preparation the MOM is intact and cytochrome c is retained within the intermembrane space. A. Cytochrome c release assays for the first (BAX-α5S, BCLX-α5S, BID-α6) and second helices (BAX-α6, BCLX-α6, BID-α7) of the ‘pore domain’ of BAX, BCL-xL and BID using mitochondria isolated from HEK293T cells. B. Cytochrome c release assays for BAX-α5M and BAX-α5MS using mitochondria isolated from MEF and MEK BAX/BAK -/- double knock-out cells (MEF DKO). C. Cytochrome c release assays for the BH3 peptides.
Last, we proceeded to perform similar dose-response experiments by measuring cytochrome c release from isolated mitochondria with peptides derived from the BH3 domains of BAX, BID and BCL-xL. […] On the other hand, the BH3 peptides from BAX and BID triggered mitochondrial cytochrome c release, although with markedly less efficiency (starting at 25 µM after 15–30 min of peptide exposure) than BAX-α5, BAX-α6 or BID-α6.
(§2) Crude mitochondria were prepared from HEK 293T, mouse embryo fibroblast (MEF) or BAX/BAK double knockout MEF cells (MEF-DKO). In brief, cells were mechanically broken using a 2 ml glass/glass Dounce homogenizer (Kontes) (30 strokes). Homogenates were cleared at 1500 g and mitochondria were spun down at 10 000 g. For cytochrome c release assays, 30 µg of crude mitochondria were resuspended at 1 mg/ml in KCl buffer supplemented with succinate (5 mM) and EGTA (0.5 mM). Peptides (2.5, 10 or 25 µM) were added to the samples and incubations were carried out at 30°C under agitation (300 rpm). At the indicated time points, samples were centrifuged (5 min, 10 000 g, 4°C); supernatants and pellets were recovered and analyzed by immunoblotting for Cytochrome c and mitoHsp70.

[2] = test system: mitochondria isolated from HEK293T cells; assay: Cytochrome c release assay; format: biochemical
Method: Thus, we tested the ability of the different peptides to induce the release of mitochondrial proteins by incubating them with mitochondria isolated from HEK293T cells, and subsequently assaying the supernatant and pelleted fractions with antibodies for cytochrome c and mitoHSP70. […] On the other hand, incubation of mitochondria with 10 µM BID-α6 induced a slower release, with depletion of the mitochondrial pool of cytochrome c occurring only after 1 hour incubation.
as §1, §2

[3] = Langmuir monolayer penetration assay, lipid mixture not singled out (Figure 5); format: physicochemical; details: πi 5 mN/m; for final increase of surface pressure πmax (insertion), in words: Figure 5A; for final increase of surface pressure πmax (insertion), in words / initial velocity of surface pressure increase Vi (affinity), in words: peptide 0.2 µM, Hepes pH 7.4, duplicate; for initial velocity of surface pressure increase Vi (affinity), in words: Figure 5B
Source text: (§3) For the biophysical characterization of membrane active protein fragments, we have used Langmuir monolayers as in vitro model of lipid membranes. These supramolecular lipid films formed at the air-water interface are attractive membrane models, widely used for studying peptide-lipid interactions, [56], [57]. We have investigated the binding of peptides derived from the central helices of BAX, BCL-xL and BID at physiological pH with model phospholipid monolayers of a composition that imitates mitochondrial membranes. For this purpose we selected fragments encompassing the sequences corresponding to the first or second α-helices of the core hairpins of BAX, BCL-xL and BID, as defined in the water-soluble protein structures, [17], [19]. Because the structures of those proteins in a membrane environment is currently unavailable, for the case of the first hairpin helix of BAX and BCL-xL (α5) we analyzed both a short version (labeled “S”), including only the reported α-helical residues, and a long version (labeled “L”) that extends a few residues beyond the α-helix stretch at both ends. Divergence of the BID sequence precluded unambiguous alignment with the other two proteins and a similar peptide design. Peptides corresponding to the BH3 domain of BAX, BCL-xL and BID were also included in the study. The sequence and some general properties of the peptides analyzed in this study are described in Table 1 and Figure 1). Lipid mixtures of POPC/DOPE (2∶1) and POPC/DOPE/CL (1∶1∶1) were chosen to mimic the MOM and the contact sites between inner and outer mitochondrial membrane (MIM/MOM), respectively. Penetration assays were carried out at constant area by spreading the lipids at the air-buffer interface, compressing the film at πi = […] and then injecting the peptides into the subphase at a concentration of 0.2 µM (see Material and Methods). Subsequent peptide binding results typically in an increase of surface pressure. Thus, the peptide-monolayer interaction can be characterized by measurable kinetic properties, such as the initial velocity of surface pressure increase (Vi), which informs about the affinity of the peptide for the lipid-water interface, and the final increase of surface pressure (πmax), which can be related to the insertion ability of the peptide into the monolayer.
Figure 5 Changes in surface pressure after peptide injection. Peptides were injected underneath POPC/DOPE or POPC/DOPE/CL monolayers at constant area. A. Final increase of surface pressure πmax (mN/m) obtained for the different peptides. The dashed line denotes the threshold (Δπ = 4.8 mN/m) for significant surface pressure variation as determined using BAX-α5S without lipids (see text). B. Initial velocity of surface pressure increase (Vi = Δπ/s).
(§4) Monolayer experiments were performed on a computer-controlled Langmuir film balance (KSV 2000, three multi-compartment system, KSV Instrument Ltd., Finland) working in a symmetrical compression mode and enclosed in an opaque cabinet. The rectangular trough (V = 85 mL ±1 mL, S = 119.25 cm^2) was made of Teflon and the mobile barriers were made in Delrin. The surface pressure, π defined as γ0 – γ, where γ0 is the surface tension of the pure aqueous subphase and γ the surface tension exerted by phospholipids at the subphase surface, was measured by the Wilhelmy's method using a platinum plate with an accuracy of ±0.05 mN/m. The trough was filled with Hepes buffer (pH 7.4), used as subphase and thermostated with a water circulating bath (Lauda E100, LAUDA France, SARL). In all experiments, the subphase temperature was maintained at a constant value of 22.5±0.5°C.
Phospholipid monolayers were formed by deposition of 14 µl of spreading solutions at a clean air/buffer interface by means of a micropipette to reach a final amount of 14 nmol of phospholipids. […]

[4] = Langmuir monolayer penetration assay at constant area; format: physicochemical; details: control peptides, Figure S2 legend; unit not given (Δπ elsewhere in mN/m); conditions as Fig. 5: πi 5 mN/m, 0.2 µM
Source text: as §3, §4
Phospholipid monolayers were formed by deposition of 14 µl of spreading solutions at a clean air/buffer interface by means of a micropipette to reach a final amount of 14 nmol of phospholipids. After complete evaporation of the solvent (∼15 min), the monolayer was slowly compressed up to a defined lateral pressure (initial surface pressure πi) at a rate of 0.045 nm^2 molecule^−1 min^−1. The value of πi = 5 mN/m was chosen because it lies between the surface pressure set-off and surface pressures (e.g. 30 mN/m, which corresponds to a tightly packed film) where many peptides of the study will not insert. […]

[5] = test system: mitochondria isolated from BAX/BAK double knockout mouse embryonic fibroblasts (MEF DKO); assay: Cytochrome c release assay; format: biochemical; details: Figure 7B
Method: as §1
Crude mitochondria were prepared from HEK 293T, mouse embryo fibroblast (MEF) or BAX/BAK double knockout MEF cells (MEF-DKO). In brief, cells were mechanically broken using a 2 ml glass/glass Dounce homogenizer (Kontes) (30 strokes). Homogenates were cleared at 1500 g and mitochondria were spun down at 10 000 g. […] At the indicated time points, samples were centrifuged (5 min, 10 000 g, 4°C); supernatants and pellets were recovered and analyzed by immunoblotting for Cytochrome c and mitoHsp70.

[6] = 10 µM peptide, 5 min incubation, 30°C, Western blot of supernatant and pellet
[7] = long versus short α5 peptide, 0.2 µM
[8] = only at the highest concentration assayed, 25 µM, 5 min

## AREVIPMAAVKQALREAGDEFELRYRRAF [BCLX-BH3, peptide corresponding to the BH3 domain of BCL-xL]
[1]; BH3 peptides, dose-response, Figure 7C
  cytochrome c release, in words: no cytochrome c release
[1]
  effect on isolated mitochondria, in words: lack of effect

## DGNFNWGRVVALFYFASKLVLKALSTKVPELIRT [BAX-α5L, long version of BAX helix α5, extended at both ends]
[2]; [6]
  cytochrome c release, in words: some residual cytochrome c was still present in the mitochondrial pellet
[3]
  final increase of surface pressure πmax (insertion), in words: much lower value
[3]; [7]
  surface pressure compared to BAX-α5S: about half

## EKEKTMLVLALLLAKKVASH [BID-α6, first helix (α6) of the central hairpin of BID]
[2]; 10 µM peptide, 30°C, Western blot
  incubation time at which the mitochondrial pool of cytochrome c is depleted: 1 h
[3]
  final increase of surface pressure πmax (insertion), in words: higher than the one of the BH3 peptides

## ELIRTIMGWTLDFLRERLLVWIQD [BAX-α6, second helix (α6) of the central hairpin of BAX]
[2]; [6]
  cytochrome c release, in words: complete depletion of all mitochondrial cytochrome c
[3]
  final increase of surface pressure πmax (insertion), in words: highest increases in surface pressure

## EQIMKTGAFLLQGFIQDRAGRW [BAX-α1, control peptide, first helix localized at the N-terminus of BAX, reference compound]
[4]
  Δπ in POPC/DOPE monolayers: 4
  Δπ in POPC/DOPE/CL monolayers: 3.4

## ESQEDIIRNIARHLAQVGDSMDRSIPPGL [BID-BH3, peptide corresponding to the BH3 domain of BID]
[1]; BH3 peptides, Figure 7C
  concentration at which cytochrome c release starts: 25 µM
[3]
  initial velocity of surface pressure increase Vi (affinity), in words: strong

## NWGRVVALFYFASKLVLKALSTKVPELIR [BAX-α5M]
[5]; mitochondria from MEF DKO
  cytochrome c release, in words: Cytochrome c release also occurred
[3]
  initial velocity of surface pressure increase Vi (affinity), in words: slightly smaller

## NWGVVKALFYFASVLRLKALSTKVPELIR [BAX-α5MS]
[5]; mitochondria from MEF and MEF DKO, relative to BAX-α5M
  kinetics of cytochrome c release, in words: increased lag time and a decreased rate of cytochrome c release
[3]
  final increase of surface pressure πmax (insertion), in words: reduced surface pressure compared to BAX-α5M

## RDGVNWGRIVAFFSFGGALSVESVDKEMQVLVSR [BCLX-α5L, long version of helix α5 of BCL-xL]
[2]; [8]
  cytochrome c release, in words: release of large amounts of cytochrome c
[3]
  final increase of surface pressure πmax (insertion), in words: higher than the one of the BH3 peptides
[3]; [7]
  increase in surface pressure compared to BCLX-α5S: ~5 fold

## SLLRDVFHTTVNFINQANLRTYVR [BID-α7, second helix (α7) of the central hairpin of BID]
[1]
  effect on isolated mitochondria, in words: lack of effect
[3]
  final increase of surface pressure πmax (insertion), in words: lowest increase of surface pressure

## TARWKKWGFQPRLKEQEGDVARDSQR [BCL2L10-LAAS, control peptide, connecting region between predicted α5-α6 helices of BCL2L10 (Long Amino Acid Stretch), reference compound]
[4]
  Δπ in POPC/DOPE monolayers: 3.4
  Δπ in POPC/DOPE/CL monolayers: 5.5

## VLVSRIAAWMATYLNDHLEPWIQE [BCLX-α6, second helix (α6) of the central hairpin of BCL-xL]
[2]; [8]
  cytochrome c release, in words: release of large amounts of cytochrome c
[3]
  final increase of surface pressure πmax (insertion), in words: higher than the one of the BH3 peptides
  initial velocity of surface pressure increase Vi (affinity), in words: strong

## VPQDASTKKLSECEKRIGNELDSNMELQR [BAX-BH3m, BAX BH3 mutant harboring substitutions (L63E/D68N)]
[1]; even at 100 µM (data not shown)
  cytochrome c release, in words: failed to induce cytochrome c release

## VPQDASTKKLSECLKRIGDELDSNMELQR [BAX-BH3, peptide corresponding to the BH3 domain of BAX]
[1]; BH3 peptides, Figure 7C
  concentration at which cytochrome c release starts: 25 µM

## WGRIVAFFSFGGALSVESVDK [BCLX-α5S, short peptide of helix α5 of BCL-xL]
[1]
  effect on isolated mitochondria, in words: lack of effect
[2]; all doses and times tested (2.5, 10 or 25 µM)
  cytochrome c release, in words: completely failed to release cytochrome c
[3]
  final increase of surface pressure πmax (insertion), in words: lowest increase of surface pressure
  initial velocity of surface pressure increase Vi (affinity), in words: strong
